Test results taken from US6514686B2, “Method and composition for modulating amyloidosis” (The University of British Columbia, priority 1997, dated 2003).

Columns and labels:
Type in all cases: cell-based
[1] = tested on: APPs secretion in wild-type PC12 cells; test: APPs secretion from wild-type PC12 cells, fifteen minute exposure
Text: Phorbol 12-myristate 13-acetate (PMA) was purchased from LC Service Corp., Woburn, Mass. All other materials were obtained as previously described in Example 1. Wild-type PC12 cells were purchased from the American Type Tissue Culture Collection # CRL-1721 and grown in DMEM with 5% FBS fetal bovine serum and 10% horse serum (GIBCO).
PC12 cells grown to confluence were pretreated for twelve hours in DMEM supplemented with charcoal-stripped calf serum (SIGMA) as described above. After pretreatment, cells were trypsinized, resuspended, and counted as described above. 10 mls each of 1.0×10^6 cells/ml PC12 cells were aliquoted into 15 ml conical tubes containing the appropriate treatment group. PMA was used as a positive control as previous experiments had shown that such treatment increases APPs release (Buxbaum, J. D. et al., “Processing of Alzheimer β/A4 amyloid precursor protein: Modulation by agents that regulate protein phosphorylation”, Proc. Natl. Acad. Sci. USA 87:6003-6006 (1990); Caporaso, G. L. et al., “Protein phosphorylation regulates secretion of Alzheimer β/A4 amyloid precursor protein”, Proc. Natl. Acad. Sci. USA 89:3055-3059 (1992); Mills, J. and P. B. Reiner, “Phorbol esters but not the cholinergic agonists oxotremorine-M and carbachol increase release of the amyloid precursor protein in cultured rat cortical neurons”, J. Neurochem. 67:1511-1518 (1996), the teachings of which are hereby incorporated by reference). The final percentage of DMSO in all treatment groups was normalized to 0.01% (v/v).
Treatment groups were as follows: a) Control; b) PMA (0.1 μM); c) RU-486 (0.1 μM). The concentration of (0.1 μM) RU-486 was chosen because it was near the EC50 mark (FIG. 4). 1.0 ml of each treatment group was pipetted into 1.5 eppendorf tubes and incubated at 37° C. in a […] incubator for fifteen minutes. Harvesting and concentration of APPs were performed as described in Example 1. Protein band separation on SDS-PAGE, visualization of bands, and quantification of APPs were also performed as previously described.
Materials and methods utilized were as outlined above. […]

[2] = tested on: APPs secretion in KB-3.1 human carcinoma cell line; test: APPs secretion from KB-3.1 cells with sub-detectable p-glycoprotein
Protocol: These cells were grown in DMEM with 10% FBS. All materials and methods are as outlined as above.

[3] = tested on: APPs secretion in KB-3.1 cells transfected with human MDR1 (p-glycoprotein); test: APPs secretion from KB-3.1 cells transiently transfected with pHaMDR1; settings: 0.1 μM, fifteen minutes, plated cells, transfection efficiency ~10-20%; FIG. 10
Protocol: KB-3.1 cells were grown as described above. The pHaMDR1 plasmid construct encoding human MDR1 was obtained as a gift from Dr. Ira Pastan (National Cancer Institute).
For calcium-phosphate transfections, cells were plated onto 10 cm polypropylene petri dishes (Falcon) at a density of 2.0×10^6 cells/dish. To prepare the cDNA for transfection, 15 μg/plate of pHaMDR1 cDNA was mixed together with 1/10 volumes of 3 M sodium Acetate, ˜3× volume of 100% ethanol in a 1.5 ml eppendorf tube and spun in a desktop centrifuge for thirty seconds. The tube was then filled to the top with ethanol and spun at 15,000 rpm at 4° C. for ten minutes. The ethanol was aspirated, leaving a tiny pellet of cDNA on the bottom. In a sterile fumehood, the cDNA was resuspended with 450 μl of 0.1× tris-EDTA(TE) ethylene diamine tetraacetic acid, tris EDTA and 50 μl of 2.5 M CaCl2. 500 μL of 2× BES (50 mM N, N-bis[2 Hydroxyethyl]2-aminoethanesu acid, 280 mM NaCl, 1.5 mM Na2HPO4.2 H2O, pH 6.96) was added to make a final volume of 1.0 ml. The entire mixture was allowed to sit for twenty minutes before adding the contents to the plate of cells. […]
Exposures were performed without resuspending the cells, in contrast to previous experiments described above. […] 5 μl from each sample was collected for protein quantification. Protein determination and APPs quantification were performed as previously described.

[4] = tested on: APPs secretion in GSrasDN1 PC12 cells; test: APPs secretion from GSrasDN1 PC12 cells (22C11 western blot, densitometry)
Text: The GSrasDN1 PC12 subline (Dr. Simon Halegous (State University of New York at Stony Brook)) expressing the dominant inhibitory mutant ras gene, p21^N17 under the control of a dexamethasone-inducible MMTV promoter (mouse mammary tumor virus), obtained as a gift from Dr. Simon Halegoua, (Kremer et al., J. Cell Biol. 115(3):809-819 (1991)) and grown in Dulbecco's modified Eagles' medium (DMEM, GIBCO) containing 5% fetal bovine serum (FBS: v/v) and 10% heat inactivated horse serum (HS, GIBCO).
RU-486 and NGF were solubilized in dimethylsulfoxide (DMSO). DMSO was used as a control vehicle in all experiments.
For drug exposure experiments in GSrasDN1 PC12 cells, cells were grown to confluence in 75 cm^2 polypropylene culture flasks from Falcon. Twelve hours prior to drug treatment, the culture medium was aspirated using a pasteur pipette and replaced with 10 ml of DMEM supplemented with 15% charcoal-stripped calf serum (SIGMA) to remove complement, immunoglobulins and endogenous steroid hormones secreted from the cells. Twelve hours later, this supplemental medium was aspirated and replaced with 10 ml of DMEM containing the treatment drugs. Flasks were allotted into the following treatment groups: a) Control and b) RU-486 (3.0 μM). DMSO concentrations were normalized to 0.06% (v/v) in all flasks.
Twelve hours following drug exposure, the medium was again aspirated and the cells were washed once with 10 ml of phosphate-buffered saline (PBS, SIGMA). Cells were removed from the bottom of the flask by incubating with 1.0 ml of trypsin (GIBCO) for five minutes. […]
After the fifteen minutes had elapsed, the tubes were placed immediately on ice to stop any reactions and 200 μl of a protease cocktail (100 μM PMSF (phenylmethanesulfonyl fluoride), 5 μg/ml Leupeptin, 5 μg/ml Aprotinin, and 5)μg/ml Pepstatin) was added to each tube. […] The nuclear fraction was pelletted down at 14,000 rpm for ten min. and 5 μl of cellular homogenate was collected for a protein quantification. […]

[5] = RU-486, dexamethasone 0.1 μM, progesterone, desmethoxyverapamil 1 μM, FIG. 7, 8

CC(=O)[C@H]1CC[C@H]2[C@@H]3CCC4=CC(=O)CC[C@]4(C)[C@H]3CC[C@]12C [progesterone, Progesterone]
effect on APPs secretion [1, 5]: significantly increased

COc1cccc(CCN(C)CCCC(C#N)(c2ccc(OC)c(OC)c2)C(C)C)c1 (stereo not drawn) [desmethoxyverapamil]
effect on APPs secretion [1, 5]: significantly increased

CCCCCCCCCCCCCC(=O)O[C@@H]1[C@@H](C)[C@@]2(O)[C@@H](C=C(CO)C[C@]3(O)C(=O)C(C)=C[C@@H]23)[C@@H]2C(C)(C)[C@]12OC(C)=O [PMA, Phorbol 12-myristate 13-acetate]
effect on APPs secretion ([1]; 0.1 μM, no drug pretreatment, FIG. 5): increase | modulation of APPs secretion ([2]; cells in suspension, FIG. 9): do not regulate | regulation of APPs secretion ([2]; non-transfected cells exposed while plated, 0.1 μM, fifteen minutes): no regulation | regulation of APPs secretion [3]: restored regulation

CC#C[C@]1(O)CC[C@H]2[C@@H]3CCC4=CC(=O)CCC4=C3[C@@H](c3ccc(N(C)C)cc3)C[C@@]21C [RU-486, 17β-hydroxy-11β-[4-dimethylaminophenyl]-17α prop-l-ynyl estra-4,9-dien-3 one]
increase in APPs secretion over NGF ([4]; RU-486 3.0 μM versus NGF 50 ng/ml, FIG. 2): ~6 fold | increase in APPs secretion over control samples ([4]; RU-486 3.0 μM, twelve hours exposure, APPs collected fifteen minutes, FIG. 2): ~12.5 fold | increased APPs secretion ([4]; at 3.0 μM RU-486, sub-maximal concentration, FIG. 4): ~21 fold
